Data on four compounds can be found in publication PMC5382913, “Interactions of the periplasmic binding protein CeuE with Fe(III) n-LICAM^4− siderophore analogues of varied linker length” (Scientific Reports, 2017).

One assay concerns the target T1, WT CeuE (Campylobacter jejuni, UniProt Q0P8Q4).
T1 sequence (Q0P8Q4 44-330): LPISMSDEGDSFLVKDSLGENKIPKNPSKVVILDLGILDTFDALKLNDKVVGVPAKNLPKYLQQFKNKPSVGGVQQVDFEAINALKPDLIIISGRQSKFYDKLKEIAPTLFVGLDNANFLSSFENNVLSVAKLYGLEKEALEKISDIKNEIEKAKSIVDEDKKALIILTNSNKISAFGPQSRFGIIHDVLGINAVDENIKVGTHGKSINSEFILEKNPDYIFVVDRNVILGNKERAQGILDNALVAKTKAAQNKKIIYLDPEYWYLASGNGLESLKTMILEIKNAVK
In words: Intrinsic fluorescence quenching titration, wild type CeuE. Particulars: 240 nM protein in 40 mM Tris-HCl pH 7.5, 150 mM NaCl; 1:1 binding model; triplicate. The source says: (§1) The affinities of CeuE for the four Fe-n-Lic complexes were quantified using intrinsic fluorescence quenching, Table 1, with measurements carried out in triplicate. The data were fitted to a 1:1 binding model and analyzed by non-linear regression. […] An attempt to determine the Kd value of Fe-5-Lic by using a more dilute protein solution was unsuccessful because of the inherent decrease in emission intensity reaching the detection limit of the fluorimeter.
(§2) Fluorescence quenching studies with CeuE were carried out on a Hitachi F-4500 fluorescence spectrophotometer as previously reported.
(§3) A 240 nM solution of CeuE in 40 mM Tris-HCl pH 7.5, 150 mM NaCl was prepared and the concentration verified by both the Bradford method and UV-vis absorbance at 280 nm, using the molar absorbance coefficient predicted by ProtParam (15930 mol^−1 dm^3 cm^−1)[43]. The CeuE solution (2 mL) was titrated stepwise with 16 aliquots of a 12 μM Fe-n-Lic solution resulting in a concentration range of Fe-n-Lic of 0 to 1.19 μM. The observed emission intensity was corrected for photomultiplier tube response and buffer subtracted, then integrated between 310 and 410 nm. The data were normalized and analyzed by nonlinear regression using a one-site binding model in DynaFit[26]. Each system was analyzed in triplicate and the average dissociation constants were calculated as reported previously.

For assay [1], the target named is T2, CeuE mutant H227L (Campylobacter jejuni, UniProt Q0P8Q4, H247L).
T2 sequence (Q0P8Q4 44-330 H247L): T1 sequence (Q0P8Q4 44-330)
In words: Intrinsic fluorescence quenching titration, CeuE mutant H227L. Particulars: 240 nM protein in 40 mM Tris-HCl pH 7.5, 150 mM NaCl; 1:1 binding model; triplicate.
Description: as §1
(§4) The binding studies with wild type CeuE were followed by titrations to determine the ligand affinity of all five mutants. Fe-5-Lic was chosen because of its strong binding to wild type CeuE and because its linker length matches that of natural catecholate siderophores. Mutation of the Fe(III)-coordinating tyrosine led to a drastic drop in binding affinity in both the single (Y228F) and the double mutants (H227L/Y288F and H227A/Y288F), with Kd values above 1 μM. In contrast, the effect of mutating the histidine was less pronounced. […] However, there is an additional entropic contribution to consider.
(§5) Subsequently, titrations were carried out with Fe-4-Lic, Fe-6-Lic and Fe-8-Lic to identify trends in the affinity for mutants H227L and H227A (Fig. 6(b) and (c)) (Table 1). The resulting Kd values show trends similar to that observed for wild type, but with systematically weaker binding.
as §2, §3

The target in assay [2] is T3, CeuE mutant H227A (Campylobacter jejuni, UniProt Q0P8Q4, H247A).
T3 sequence (Q0P8Q4 44-330 H247A): T1 sequence (Q0P8Q4 44-330)
Kind of assay: Intrinsic fluorescence quenching titration, CeuE mutant H227A. To be noted: 240 nM protein in 40 mM Tris-HCl pH 7.5, 150 mM NaCl; 1:1 binding model; triplicate.
Description: as §1, §4, §5, §2, §3

The target in a further assay is T4, CeuE single mutant Y228F (Campylobacter jejuni, UniProt Q0P8Q4, Y308F).
T4 sequence (Q0P8Q4 44-330 Y308F): T1 sequence (Q0P8Q4 44-330)
Kind of assay: Intrinsic fluorescence quenching titration, CeuE single mutant Y228F. Format: binding. How it is done: as §4, §2
as §3, with “The observed emission intensity was corrected for photomultiplier tube response and buffer subtracted, then integrated between 310 and 410 nm.” left out

In assay [3] the target is T5, CeuE double mutant H227L/Y288F (Campylobacter jejuni, UniProt Q0P8Q4, H247L/Y308F).
T5 sequence (Q0P8Q4 44-330 H247L/Y308F): T1 sequence (Q0P8Q4 44-330)
In words: Intrinsic fluorescence quenching titration, CeuE double mutant H227L/Y288F. It is filed as binding. How it is done: as §4, §2
as §3, with “The observed emission intensity was corrected for photomultiplier tube response and buffer subtracted, then integrated between 310 and 410 nm.” left out

The target of assay [4] is T6, CeuE double mutant H227A/Y288F (Campylobacter jejuni, UniProt Q0P8Q4, H247A/Y308F).
T6 sequence (Q0P8Q4 44-330 H247A/Y308F): T1 sequence (Q0P8Q4 44-330)
In words: Intrinsic fluorescence quenching titration, CeuE double mutant H227A/Y288F. It is filed as binding. How it is done: as §4, §2
as §3, with “The observed emission intensity was corrected for photomultiplier tube response and buffer subtracted, then integrated between 310 and 410 nm.” left out

In a further assay the test system is CeuE Y228F mutants. In words: Circular dichroism of LMCT band, Y228F mutants. Format: binding, Campylobacter jejuni. Particulars: 50 μM in 100 mM TRIS buffer, 150 mM NaCl, 0.5% DMSO, pH 7.5. The source says:
(§6) To confirm that the preference for the Λ-configuration is retained in solution, circular dichroism (CD) spectroscopy was used to probe the ligand-to-metal charge transfer (LMCT) band (Fig. 8(a)). The minimum and maximum of the region of the LMCT band at approximately 408 nm and 595 nm, respectively, are indicative of the Λ-configuration[29], with no CD signal observed in the absence of either the protein or ligand, confirming that the protein selectively binds the Λ-configuration.
(§7) The Y228F mutants gave no signal, confirming a lack of Λ-configuration induction, which may indicate a lack of ligand binding. […] Complexes of H227L and H227A were then prepared with all four Fe-n-Lic complexes.
(§8) Solutions of wild type CeuE and mutant proteins were diluted to 5 × 10^−5 M in buffer containing 150 mM NaCl and 0.11 M Tris, adjusted to pH 7.5. […]
(§9) Spectra were recorded using a solution containing 880 μL 0.11 M Tris pH 7.5, 150 mM NaCl buffer, 100 μL (Fe(III)-n-Lic (n = 4, 5, 6, 8) NTA solution and 20 μL to 5 × 10^−5 M CeuE, resulting in a 50:1 excess of ligand to ensure full binding.
(§10) The spectra were recorded from 300–700 nm and buffer subtracted (data pitch […], scan speed 100 nm min^−1, response 2 seconds, bandwidth 2 nm, path length 1 cm). The spectra were recorded 5 times and averaged.

In assay [5] the target is T2, CeuE mutant H227L. Kind of assay: Circular dichroism of LMCT band, mutant H227L. It is filed as binding. Particulars: 50 μM in 100 mM TRIS buffer, 150 mM NaCl, 0.5% DMSO, pH 7.5.
Description: as §6, §7, §8, §9, §10

The target in assay [6] is T3, CeuE mutant H227A. In words: Circular dichroism of LMCT band, mutant H227A. To be noted: 50 μM in 100 mM TRIS buffer, 150 mM NaCl, 0.5% DMSO, pH 7.5. Format: binding.
Description: as §6, §7, §8, §9, §10

Take `O=C(NCCCCCCCCNC(=O)c1cccc(O)c1O)c1cccc(O)c1O` [Fe-8-Lic]: the Kd on WT CeuE turned out to be 0.058 ± 0.008 µM; on CeuE mutant H227L [1], 0.112 ± 0.021 µM; on CeuE mutant H227A [2] it was 0.125 ± 0.036 µM.
In the case of `O=C(NCCCCCNC(=O)c1cccc(O)c1O)c1cccc(O)c1O` [Fe-5-Lic], the Kd at WT CeuE is less than 0.01 µM; at CeuE mutant H227L [1] it was 0.022 ± 0.01 µM; at CeuE mutant H227A [2], 0.035 ± 0.014 µM; on CeuE single mutant Y228F, greater than 1 µM; in assay [3] it was greater than 1 µM; in assay [4] it was greater than 1 µM. The “CD signal of Λ-configuration (LMCT band), Y228F mutants” value in the assay on CeuE Y228F mutants is given as “no signal”. Also, at CeuE mutant H227L [5], the “CD signal of Λ-configuration (LMCT band), mutant H227L” value is “Λ-configuration signal was observed”. In addition, the “CD signal of Λ-configuration (LMCT band), mutant H227A” value at CeuE mutant H227A [6] is listed as “Λ-configuration signal was observed”.
`O=C(NCCCCNC(=O)c1cccc(O)c1O)c1cccc(O)c1O` [Fe-4-Lic]: the Kd at WT CeuE worked out at 0.021 ± 0.006 µM; on CeuE mutant H227L [1] it was 0.09 ± 0.03 µM; at CeuE mutant H227A [2], 0.131 ± 0.028 µM.
In the case of `O=C(NCCCCCCNC(=O)c1cccc(O)c1O)c1cccc(O)c1O` [Fe-6-Lic], the Kd was 0.033 ± 0.008 µM on WT CeuE, 0.065 ± 0.021 µM on CeuE mutant H227L [1] and 0.041 ± 0.007 µM at CeuE mutant H227A [2].
